From patent US5408036A, “Isolated metallopolypeptide: compositions and synthetic methods” (The Scripps Research Institute, priority 1993, dated 1995) come the findings set out here.

In general, pKd refers to −log10 of the Kd, conventionally taken in molar units. Lower therefore signals a large Kd. As usually defined, the solubility is the dissolved amount per volume that the medium holds. A high value points to a readily soluble substance.

A short description of series [1]: Metal ion selectivity and relative affinities by CD analysis. The series is classed as binding. As to conditions: for metal ion(s) that preferentially stabilize the peptide: summary of Example 3A(2), 3A(3); for metal ions bound, order of affinity: peptide SEQ ID NO:11 at pH 6.0. The text has this: Metal ion selectivity is an expected consequence of site specific metal-ligand interaction. The extent of helical induction, to a first approximation, depends on the affinity of metal ion toward the ligands employed, and on the compatibility of metal ion geometry and coordination sphere with the alpha-helical conformation. Thus, although numerous metal ions can induce and stabilize alpha-helix formation, the metal ion having the greatest relative affinity for the ligands employed is preferred and can readily be determined. […]
Peptides, prepared as in Example 1, and admixed with various metal salt solutions as described in Example 2B, were subjected to CD analysis to characterize metal ion selectivity with respect to the position of the metal binding site in the alpha-helical sequence.

Series [2] is described as follows: CD titration: dependence of [θ]222 on free metal ion concentration, ZnCl2. The settings on record: CD analysis, ZnCl2. The series is classed as binding. The source says:
(§1) FIG. 4 illustrates the dependence of mean residue molar ellipticity at 222 nm ([.THETA.]222 ×10^-3) of peptides SEQ ID NO's:2 AND 3 on the concentration of free metal ions when measured as described in Example 3A(2).
(§2) The peptide metal salt solution admixtures prepared as in Example 2A were subjected to CD analyses according to published procedures to measure the degree of stability induced by metal ion complexation with peptides. Greenfield et al., Biochem, 8:4108 (1969) and Johnson, Ann. Rev. Biophvs. Chem., 17:145 (1988). All CD data reported herein have an uncertainty of ±2 to 5% for a 100% helix, [θ]222 =-35,000, and are based on several CD measurements of both peptides SEQ ID NO's:2 and 3 in the presence and absence of metal ions in various TFE/H20 mixtures at -10° to 20° C.
(§3) Both Cu(II) and Zn(II) bound peptide SEQ ID NO:3 with similar affinities and increased the helical content to the same extent.

A short description of series [3]: CD titration: dependence of [θ]222 on free metal ion concentration, CdCl2. It counts as binding. The settings on record: CdCl2, pH 8.0; peptide 5.9×10^-6M in 10 mM sodium borate, 0.5 mM mercaptoethanol, 21° C.
Source text: as §1, §2, §3

The nature of series [4]: Circular dichroism (CD) to measure degree of secondary structure (alpha-helicity). As to conditions: for helicity / θ: using Cu(II). It counts as physicochemical. The protocol: ID No's. 3 and 4. The analysis was performed as described above.
Proton nuclear magnetic resonance spectra were recorded at 300MHz on Bruker AM300 spectrometer and are reported in parts per million (ppm) downfield from Me4 Si. Ultraviolet-visible spectra were recorded on Aviv Associates 14DS and Milton Roy Spectronic 3000 Array spectrometers. Circular dichroism measurements were made on Aviv Associates 62DS spectrometer equipped with a thermostable cell holder using 10, 1, and 0.1 mm Hellma quartz cells. All reported CD data have an uncertainty of ±2-5%. All ellipticity measurements are expressed as mean residue ellipticity, [θ], having the units deg·cm^2 ·dmol-^1.
A general note: CD spectra are sensitive to the conformation of chiral molecules.

Series [5] in a line: Heat denaturation assay to measure melting temperatures. The series is classed as physicochemical. The protocol:
In order to assess differences in helix stability between the metal ion complexed and uncomplexed forms of peptides Seq. ID No's. 3 and 4, the conformational stability of each peptide in the presence and absence of transition metal ions was determined from heat denaturation studies according to published procedures. Pace et al., In Protein structure, p. 311., IRL Press, (1989). The analysis of the thermal denaturation curves afforded linear ΔG vs. T and van't Hoff plots. […] Complexed peptides Seq. ID No's.
Because tris-bipyridyl-metal ion coordination complexes are chiral and can form either a left-handed or a right-handed helix, two diastereomeric tri-helical structures can possibly be formed. The stereogenic environment of the ensuing parallel tri-helical topology as well as the geometrical constraints imposed by the overall C3 symmetry of the coordination complex was expected, however, to enforce a high degree of diastereoselectivity in the assembly process. The CD spectrum (in the region of 280 and 330 nm) of the peptide in the presence of Ni(II) indicated the formation of one diastereomer having a left-handed helical configuration. Such a behavior is also consistent with the expected left handed supercoil of the tri-helical metallopolypeptide. The analysis of the thermal denaturation curves for the metallopolypeptide in the presence of Ni(II) yielded linear ΔG vs T and van't Hoff plots.

Series [6] is described as follows: Aqueous solubility of the peptide. The series is classed as physicochemical. The protocol:
The peptide, in the absence of a metal ion, was readily soluble (up to about 2 mg/ml, 1.3 mM) in aqueous media at a pH value of from about 4 to about 9.

A short description of series [7]: Concentration dependence of ellipticity at 222 nm, monomer-nmer equilibria. The series is classed as physicochemical. The settings on record: absence of added metal ions; nonlinear regression MINSQ. The protocol: Data (Δ) were analyzed according to monomer-.eta.mer equilibria using the equation below, where Pn, Pmon, and PT are the self-associated, monomeric, and total concentrations of the peptides, respectively, n is the degree of association, θmon is the ellipticity of the monomer, and θn is the ellipticity of the self-associated form of the peptide. The values of n=1.95, θmon =-10,100, θn =-27,900, and Kdiss =6.4×10^-4 were determined by the nonlinear regression program MINSQ. [formula]

Setting [8] is: with CdCl2 (solution 8, 7.3×10^-4 M), water, 4° C.
The mark [9] stands for this setting: Ni(II) or Co(II) ions plus 150 mM NaCl.
The mark [10] stands for this setting: absence of any polyvalent metal ion, 7.4 μM in 5 mM sodium borate, pH 6.4, 21° C.
[11] abbreviates: presence of Ni(II) or Co(II) ions, similar conditions (5 mM sodium borate, pH 6.4, 21° C.).

pKd: −log10 of the molar value. “And” between values parts separate entries of the source, which are not always exact repeats. Identical values can stand only once. Residues, ends and D or L forms follow the SMILES beside them. No end group written: not given here. *: point of attachment. 5‑carboxyl‑2,2'‑bipyridine = O=C(c1ccc(-c2ccccn2)nc1)*

For `CC(=O)N[C@@H](C)C(=O)N[C@@H](CCC(=O)O)C(=O)N[C@@H](C)C(=O)N[C@@H](C)C(=O)N[C@@H](C)C(=O)N[C@@H](CCCCN)C(=O)N[C@@H](CCC(=O)O)C(=O)N[C@@H](C)C(=O)N[C@@H](C)C(=O)N[C@@H](C)C(=O)N[C@@H](CCCCN)C(=O)N[C@@H](CS)C(=O)N[C@@H](C)C(=O)N[C@@H](C)C(=O)N[C@@H](C)C(=O)N[C@@H](Cc1c[nH]cn1)C(=O)N[C@@H](C)C(N)=O` [peptide SEQ ID NO:2, Ac--Ala--Glu--Ala--Ala--Ala--Lys--Glu--Ala--Ala--Ala--Lys--Cys--Ala--Ala--Ala--His--Ala--CONH2] (Ac-AEAAAKEAAAKCAAAHA-NH2), the metal ion selectivity result in series [1] (CD analysis, CdCl2 vs ZnCl2) is reported as “Cd(II) selective”. Moreover, the “metal ion(s) that preferentially stabilize the peptide” value in series [1] was “Cu(II) and Zu(II)”. The “effect of Zn(II) on helical content” value in series [2] is on record as “no effect”. The pKd in series [3] was 4.25. In series [4] (NaF up to 250 mM, 5 mM sodium borate), the “dependence of helicity on added NaF” value is recorded as “independent of concentration of added NaF up to 250 mM”. This molecule registered an alpha-helicity in series [4] (absence of metal ion (solution 7), water pH 6.65, 4° C.) of 54%. Moreover, the “dependence of CD spectra on peptide concentration” value in series [4] (presence and absence of metal ions, 0.5-70 μM) was “independent of the peptide concentration”. In series [4] (setting [8]), the alpha-helicity result is reported as “up to 90%” and the “θ222” value is -31,500.
With `CC(=O)N[C@@H](C)C(=O)N[C@@H](CCC(=O)O)C(=O)N[C@@H](C)C(=O)N[C@@H](C)C(=O)N[C@@H](C)C(=O)N[C@@H](CCCCN)C(=O)N[C@@H](Cc1c[nH]cn1)C(=O)N[C@@H](C)C(=O)N[C@@H](C)C(=O)N[C@@H](C)C(=O)N[C@@H](Cc1c[nH]cn1)C(=O)N[C@@H](CCC(=O)O)C(=O)N[C@@H](C)C(=O)N[C@@H](C)C(=O)N[C@@H](C)C(=O)N[C@@H](CCCCN)C(=O)N[C@@H](C)C(N)=O` [peptide SEQ ID NO:4, Ac--Ala--Glu--Ala--Ala--Ala--Lys--His--Ala--Ala--Ala--His--Glu--Ala--Ala--Ala--Lys--Ala--CONH2] (Ac-AEAAAKHAAAHEAAAKA-NH2), the “metal ions bound, order of affinity” value in series [1] (CD analysis) is “Ni(II) and Cu(II) predominantly followed by Cd(II) then Zn(II)”. Besides, in series [1], the “metal ion(s) that preferentially stabilize the peptide” value is on record as “Ni(II)”. Moreover, the “melting temperature (Tm)” value in series [5] is -15.5 °C. The “CD spectrum, structure indicated” value in series [4] (room temperature in water) was “random coil structure”.
For the molecule `CC(=O)N[C@@H](C)C(=O)N[C@@H](Cc1c[nH]cn1)C(=O)N[C@@H](C)C(=O)N[C@@H](C)C(=O)N[C@@H](C)C(=O)N[C@@H](Cc1c[nH]cn1)C(=O)N[C@@H](CCC(=O)O)C(=O)N[C@@H](C)C(=O)N[C@@H](C)C(=O)N[C@@H](C)C(=O)N[C@@H](CCCCN)C(=O)N[C@@H](CCC(=O)O)C(=O)N[C@@H](C)C(=O)N[C@@H](C)C(=O)N[C@@H](C)C(=O)N[C@@H](CCCCN)C(=O)N[C@@H](C)C(N)=O` [peptide SEQ ID NO:5, Ac--Ala--His--Ala--Ala--Ala--His--Glu--Ala--Ala--Ala--Lys--Glu--Ala--Ala--Ala--Lys--Ala--CONH2] (Ac-AHAAAHEAAAKEAAAKA-NH2), in series [1] (CD analysis), the “binding of Cd(II) or Zn(II)” value is “no significant binding”; the “metal ions bound, order of affinity” value is “Ni(II) and Cu(II) in descending order of affinity”. The “metal ion(s) that preferentially stabilize the peptide” value in series [1] was “Ni(II)”.
Turning to `CC[C@H](C)[C@H](NC(=O)[C@H](Cc1ccc(O)cc1)NC(=O)[C@@H](NC(=O)[C@H](Cc1c[nH]cn1)NC(=O)CNC(=O)[C@@H]1CCCN1C(=O)[C@H](Cc1c[nH]cn1)NC(=O)[C@@H](NC(=O)[C@H](CO)NC(=O)[C@H](CC(C)C)NC(=O)[C@H](CS)NC(C)=O)C(C)C)[C@@H](C)O)C(=O)N[C@@H](CCC(N)=O)C(=O)N[C@@H](CS)C(N)=O` [peptide SEQ ID NO:19] (Ac-CLSVHPGHTYIQC-NH2), in series [6] (aqueous media, water, absence of a metal ion, pH about 4 to about 9), the solubility was ≥ 2000 µg/mL and ≥ 1300 µM. Besides, the “decrease of aqueous solubility in the presence of Zn” value in series [6] (pH values greater than about 5.0) is “about 100 fold”. Further, the “CD spectrum, structure indicated” value in series [4] (absence of added Zn, about 6.0×10^-6 M in Na borate, pH 7.5) is “random-coiled structure”; in series [4] (one equivalent of Zn added), “beta-turn structure”.
As to “-Gly-Glu-Leu-Ala-Glu-Gln-Lys-Leu-Glu-Gln-Ala-Leu-Gln-Lys-Leu-Ala ({5‑carboxyl‑2,2'‑bipyridine}-GELAEQKLEQALQKLA) [peptide of Example 4]”, in series [7], the “θmon, ellipticity of the monomer” value is given as -10,100 and the “θn, ellipticity of the self-associated form” value was -27,900. In series [4] (setting [9]), the alpha-helicity turned out to be 80% and the θ222 is listed as -25,800 deg·cm2·dmol^-1. Also, in series [4] (setting [10]), the alpha-helicity worked out at 30% and the θ222 is reported as -10,000 deg·cm^2·dmol^-1. Besides, in series [4] (setting [11]), the alpha-helicity entry is recorded as “greater than 70%” and the θ222 is reported as -23,400 degcm^2 dmol^-1.
Consider “Ac--Ala--Ala--Xaa2 --Ala--Leu--Glu--Xaa2 --Gln--Ala--Lys--Ala--Leu--Lys--Glu--Ala--Ala--Gln--Lys--Ala--CONH2 [peptide SEQ ID NO:11, Xaa2 = (NH2)(CO2 H)CH(CH2)3 N(CH2 CO2 H)2]”, for which, in series [1] (CD analysis), the “metal ions bound, order of affinity” value is “Cu(II), Hg(II), Cd(II), Fe(II), Zn(II) and Pb(II) in descending order of affinity”. The “metal ion(s) that preferentially stabilize the peptide” value in series [1] is on record as “Cu(II)”. Besides, the helicity entry in series [4] (0° C.) is given as “about 100%”; in series [4] (20° C.), “about 80%”. In addition, the θ is on record as 35,600 in series [4] (0° C.) and 29,300 in series [4] (20° C.).
Regarding “Ru(III)-peptide SEQ ID NO:3 complex: exchange-inert macrocyclic cis-[Ru(NH3)4 (L)2 ]^3+ complex of peptide SEQ ID NO:3 through two His residues at i and i+4 (AEAAAKEAAAKHAAAHA; Ru(III) tetraammine macrocyclic complex via two His)”, in series [5], the “melting temperature (Tm)” value was 35 °C. For the same molecule, in series [4] (room temperature in water), the alpha-helicity is more than 80% and the θ222 was -28,000.
